# Test results as given in ChEMBL document CHEMBL1201862, “PubChem BioAssay data set” (2004).
# The source made the active and inactive calls.
# What was measured:
# [1] = target: Heat shock protein HSP 90-alpha (Homo sapiens, UniProt P07900); format: functional, organism-based
# [2] = target: T1, DNA repair protein RAD52 homolog (Homo sapiens, UniProt P43351); format: functional, biochemical
# T1 sequence (P43351 whole entry): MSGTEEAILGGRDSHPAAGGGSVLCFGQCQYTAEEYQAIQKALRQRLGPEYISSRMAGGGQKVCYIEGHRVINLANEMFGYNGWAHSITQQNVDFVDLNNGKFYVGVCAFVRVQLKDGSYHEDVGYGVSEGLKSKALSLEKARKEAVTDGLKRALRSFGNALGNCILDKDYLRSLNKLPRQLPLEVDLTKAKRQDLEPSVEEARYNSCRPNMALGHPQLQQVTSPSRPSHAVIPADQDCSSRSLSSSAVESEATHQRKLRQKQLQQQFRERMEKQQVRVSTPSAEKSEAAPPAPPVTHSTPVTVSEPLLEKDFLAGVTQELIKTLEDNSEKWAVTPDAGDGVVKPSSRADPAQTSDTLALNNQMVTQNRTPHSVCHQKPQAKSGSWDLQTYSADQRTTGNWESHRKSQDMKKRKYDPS
# [3] = target: T2, DNA repair and recombination protein RAD54-like (Homo sapiens, UniProt Q92698); assay: RAD54 Holliday junction migration blockers – biochemical, fluorescence, cherry-picked samples, dose series, confirmation (AID 651657); format: functional
# T2 sequence (Q92698 whole entry): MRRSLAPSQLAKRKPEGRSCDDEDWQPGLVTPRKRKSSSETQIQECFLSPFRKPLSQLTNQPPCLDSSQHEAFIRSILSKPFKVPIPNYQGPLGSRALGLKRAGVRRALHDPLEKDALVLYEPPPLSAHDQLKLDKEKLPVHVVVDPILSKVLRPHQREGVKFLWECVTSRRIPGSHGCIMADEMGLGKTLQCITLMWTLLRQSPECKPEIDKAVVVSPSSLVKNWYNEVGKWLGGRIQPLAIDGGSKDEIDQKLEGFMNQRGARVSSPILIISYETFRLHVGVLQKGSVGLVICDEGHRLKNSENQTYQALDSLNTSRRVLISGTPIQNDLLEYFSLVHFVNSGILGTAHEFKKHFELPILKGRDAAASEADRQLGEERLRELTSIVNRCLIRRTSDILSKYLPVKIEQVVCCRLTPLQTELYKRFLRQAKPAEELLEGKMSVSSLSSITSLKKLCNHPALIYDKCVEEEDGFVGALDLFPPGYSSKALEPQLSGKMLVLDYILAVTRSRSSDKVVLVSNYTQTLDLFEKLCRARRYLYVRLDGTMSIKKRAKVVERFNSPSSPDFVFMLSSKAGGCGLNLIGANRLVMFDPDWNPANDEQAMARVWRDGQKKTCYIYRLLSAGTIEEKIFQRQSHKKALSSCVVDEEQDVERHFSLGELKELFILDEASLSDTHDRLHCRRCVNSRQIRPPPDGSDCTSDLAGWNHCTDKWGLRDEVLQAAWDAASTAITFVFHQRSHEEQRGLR
# Escherichia coli = assay: microbe, parasite or virus in culture
# [4] = Luminescence Cell-Based Dose Retest to Confirm Inhibitors of Cancer Stem Cells. [Related pubchem assays (depositor defined):AID2717, AID2721]; format: functional; settings: Homo sapiens
# [5] = A Cell Based Secondary Assay To Explore Cytotoxicity of Compounds that Sensitize Mycobacterium Tuberculosis to Beta-Lactam Antibiotics.; format: functional
# [6] = blockade of melanocortin 4 receptor signaling – cell-based, plate reader, cherry pick, counter-screen for LGR2 antagonist project, dose response (AID 743444); format: functional;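 further: transfected HEK 293 cells stimulated with alpha-MSH peptide; potency of inhibitors of the alpha-MSH evoked signal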
# [7] = viability loss in HEK293 cells – cell-based, plate reader, cherry-picked samples, cytotoxicity control, dose response (AID 743446); format: functional
# [8] = toxicity toward HepG2 liver cells – cell-based, plate reader, cherry-pick, antagonist series, cytotoxicity control, dose response (AID 743416); format: functional
# [9] = A549 cell cytotoxicity, dose response, cytotoxicity control, plate reader, cherry-pick, antagonist series (AID 743412); format: functional, cell-based
# [10] = blockers of bursicon-stimulated LGR2 cAMP reporter – cell-based, HEK293, CRE-luciferase reporter, cherry pick, set 2, dose response (AID 743343); format: functional;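 further: transfected cells were stimulated with diluted bursicon conditioned medium after compound addition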
# [11] = target: T3, Short transient receptor potential channel 4 (Mus musculus, UniProt Q9QUQ5); assay: calcium entry via TRPC4 opening agents – cell-based, HEK293 TRPC4/mu-opioid, Fluo-4 calcium, dose response (AID 434937); format: functional
# T3 sequence (Q9QUQ5 whole entry): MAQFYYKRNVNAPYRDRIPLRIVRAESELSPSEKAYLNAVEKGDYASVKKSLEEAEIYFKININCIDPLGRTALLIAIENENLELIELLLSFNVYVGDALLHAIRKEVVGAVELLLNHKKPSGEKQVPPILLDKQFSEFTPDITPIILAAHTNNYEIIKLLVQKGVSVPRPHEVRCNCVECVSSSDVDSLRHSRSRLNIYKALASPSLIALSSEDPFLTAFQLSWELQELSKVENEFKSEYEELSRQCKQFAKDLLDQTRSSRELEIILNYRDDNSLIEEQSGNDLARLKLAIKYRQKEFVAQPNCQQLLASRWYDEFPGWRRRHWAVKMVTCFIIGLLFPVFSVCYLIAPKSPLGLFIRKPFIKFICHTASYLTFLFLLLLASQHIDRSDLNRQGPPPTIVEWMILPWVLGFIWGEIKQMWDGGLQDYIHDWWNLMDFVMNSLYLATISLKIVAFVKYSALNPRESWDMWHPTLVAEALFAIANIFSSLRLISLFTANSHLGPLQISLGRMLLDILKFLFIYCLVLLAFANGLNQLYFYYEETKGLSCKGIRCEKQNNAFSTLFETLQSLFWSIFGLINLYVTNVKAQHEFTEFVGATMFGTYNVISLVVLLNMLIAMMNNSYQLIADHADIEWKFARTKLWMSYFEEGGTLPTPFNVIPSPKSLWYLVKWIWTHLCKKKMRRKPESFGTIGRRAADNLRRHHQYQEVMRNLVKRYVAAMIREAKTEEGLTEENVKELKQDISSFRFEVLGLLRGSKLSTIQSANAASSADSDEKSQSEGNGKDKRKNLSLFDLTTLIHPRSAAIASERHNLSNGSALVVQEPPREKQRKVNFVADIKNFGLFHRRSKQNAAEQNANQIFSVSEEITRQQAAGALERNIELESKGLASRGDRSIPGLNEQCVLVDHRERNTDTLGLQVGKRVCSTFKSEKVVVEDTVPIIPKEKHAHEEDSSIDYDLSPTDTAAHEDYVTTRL
# Cytochrome P450 2C19 = Cytochrome P450 2C19 (Homo sapiens, UniProt P33261); assay: Cytochrome panel assay with activity outcomes. Panel member name: p450-cyp2c19 Compounds with AC50 equal or less than 10 uM are considered active; format: functional; settings: read-out: AC50
# Cytochrome P450 2C19, sequence (P33261 whole entry, the tested form may be a part): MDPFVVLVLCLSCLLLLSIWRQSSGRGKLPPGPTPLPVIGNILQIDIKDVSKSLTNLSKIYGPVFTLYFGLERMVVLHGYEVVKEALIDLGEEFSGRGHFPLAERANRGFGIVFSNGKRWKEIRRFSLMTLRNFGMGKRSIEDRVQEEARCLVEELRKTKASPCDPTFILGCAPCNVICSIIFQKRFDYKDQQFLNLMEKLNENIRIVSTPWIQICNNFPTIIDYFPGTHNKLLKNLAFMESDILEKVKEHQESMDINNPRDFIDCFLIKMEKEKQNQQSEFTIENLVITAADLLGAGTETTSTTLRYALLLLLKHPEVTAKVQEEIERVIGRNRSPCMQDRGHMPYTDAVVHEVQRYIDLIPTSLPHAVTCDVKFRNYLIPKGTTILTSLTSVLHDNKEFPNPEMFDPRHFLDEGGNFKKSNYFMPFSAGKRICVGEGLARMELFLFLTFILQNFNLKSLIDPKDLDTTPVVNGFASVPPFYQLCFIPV
# [12] = Fluorescence-based cell-based high throughput dose response assay for inhibitors of the interaction of nucleotide-binding oligomerization domain containing 2 (NOD2) and the receptor-interacting serine-threonine kinase 2 (RIPK2).; format: functional, Homo sapiens
# [13] = target: T4, Replicative DNA helicase DnaB (Mycobacterium tuberculosis, UniProt P9WMR3); assay: DnaB intein splicing inhibitors, dose response, biochemical, cell-free fluorescence (AID 449749); format: functional
# T4 sequence (P9WMR3 whole entry): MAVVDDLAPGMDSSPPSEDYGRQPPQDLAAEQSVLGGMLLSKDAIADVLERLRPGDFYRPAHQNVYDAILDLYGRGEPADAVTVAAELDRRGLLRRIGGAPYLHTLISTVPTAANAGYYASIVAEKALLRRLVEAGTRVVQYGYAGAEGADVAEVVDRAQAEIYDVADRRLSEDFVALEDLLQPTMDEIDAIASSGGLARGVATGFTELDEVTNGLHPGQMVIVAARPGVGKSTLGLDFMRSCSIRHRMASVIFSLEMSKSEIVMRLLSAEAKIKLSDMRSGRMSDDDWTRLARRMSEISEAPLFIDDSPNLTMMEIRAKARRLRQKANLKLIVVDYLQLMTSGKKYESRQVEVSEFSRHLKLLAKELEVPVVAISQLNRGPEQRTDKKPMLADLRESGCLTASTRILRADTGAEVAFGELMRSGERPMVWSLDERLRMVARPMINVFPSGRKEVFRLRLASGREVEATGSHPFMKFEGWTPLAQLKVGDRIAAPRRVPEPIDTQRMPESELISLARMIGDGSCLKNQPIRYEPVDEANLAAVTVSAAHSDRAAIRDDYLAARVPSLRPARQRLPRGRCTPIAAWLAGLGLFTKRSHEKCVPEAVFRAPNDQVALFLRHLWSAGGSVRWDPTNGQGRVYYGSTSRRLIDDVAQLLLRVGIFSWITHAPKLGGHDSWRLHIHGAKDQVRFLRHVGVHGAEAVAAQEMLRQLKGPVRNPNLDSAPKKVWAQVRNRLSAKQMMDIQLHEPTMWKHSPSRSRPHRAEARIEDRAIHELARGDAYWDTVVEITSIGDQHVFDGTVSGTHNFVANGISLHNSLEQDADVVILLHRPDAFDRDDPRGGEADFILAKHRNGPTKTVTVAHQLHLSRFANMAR
# Protein RecA = target: T5, Protein RecA (Mycobacterium tuberculosis, UniProt P9WHJ3); assay: Fluorescence Cell-Free Homogeneous Dose Retest to Identify Inhibitors of RecA-Intein Splicing Activity. [Related pubchem assays (depositor defined):AID2097, AID2223, AID489010, AID492950]; format: functional
# T5 sequence (P9WHJ3 whole entry): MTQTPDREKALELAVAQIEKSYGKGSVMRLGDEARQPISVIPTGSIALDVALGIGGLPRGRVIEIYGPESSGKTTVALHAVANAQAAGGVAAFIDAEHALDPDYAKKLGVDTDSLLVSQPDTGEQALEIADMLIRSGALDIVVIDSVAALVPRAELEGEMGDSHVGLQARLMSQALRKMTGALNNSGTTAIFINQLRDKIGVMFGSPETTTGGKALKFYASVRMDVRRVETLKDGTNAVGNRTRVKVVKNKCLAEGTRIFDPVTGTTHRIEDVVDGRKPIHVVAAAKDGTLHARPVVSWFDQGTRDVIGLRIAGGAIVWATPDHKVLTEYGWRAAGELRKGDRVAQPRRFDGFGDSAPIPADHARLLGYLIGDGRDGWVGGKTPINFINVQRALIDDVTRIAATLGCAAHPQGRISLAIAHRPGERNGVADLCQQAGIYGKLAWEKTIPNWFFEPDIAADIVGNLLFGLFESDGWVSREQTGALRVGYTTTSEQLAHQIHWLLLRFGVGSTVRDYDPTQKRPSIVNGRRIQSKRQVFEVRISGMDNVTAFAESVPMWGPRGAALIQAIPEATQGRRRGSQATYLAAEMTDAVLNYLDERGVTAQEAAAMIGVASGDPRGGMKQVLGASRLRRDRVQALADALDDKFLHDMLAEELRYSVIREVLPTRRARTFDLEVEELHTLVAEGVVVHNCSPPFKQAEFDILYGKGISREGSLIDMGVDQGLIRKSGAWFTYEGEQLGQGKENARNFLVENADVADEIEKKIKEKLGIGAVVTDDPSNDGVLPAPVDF
# [14] = A cytotoxicity screen of small molecule inhibitors of the PhoP region in Salmonella typhi identified in the primary screen. [Related pubchem assays: 1850, 1864, 1985 ]; format: functional
structure (smiles),measurement,setting,value
OC(Cn1cncn1)(c1ccccc1)c1ccccc1,AC50,[1],1.43 µM (active)
NC(=O)CN1CCN(CCN2C(=O)c3cccc4cccc(c34)C2=O)CC1,AC50,[2],12.1 µM (active)
same,AC50,[3],13.3 µM (active)
Cc1cc(C)c2nc(C)cc(Nc3ccc(C(=O)NCCO)cc3)c2c1,AC50,[3],32.6 µM (active)
Cc1ccc(NC(=O)c2ccc(Oc3ncccn3)cc2)cc1,AC50,Escherichia coli,37.9 µM (active)
CCN(CC)CCNC(=O)c1cc2c(=O)n(C)c3ccccc3c2n1C,AC50,[3],18.3 µM (active)
O=C1NC(=O)N(CCc2ccccc2)C(=O)/C1=C/NCc1ccc2c(c1)OCO2,AC50,Escherichia coli,43.4 µM (active)
CC1CCCCN1S(=O)(=O)c1ccc(NC(=O)c2ccco2)cc1 (stereo unspecified),AC50,Escherichia coli,32.1 µM (active)
Cn1nnnc1Sc1ncnc2scc(-c3ccc(C(F)(F)F)cc3)c12,AC50,[4],2.52 µM (active)
same,CC50,[5],6.16 µM (active)
same,AC50,[6],17.7 µM (active)
same,AC50,[7],8.08 µM (active)
same,AC50,[8],8.47 µM (active)
same,AC50,[9],7.67 µM (active)
same,AC50,[10],14.8 µM (active)
O=C(O)C1C2C=CC(C2)C1C(=O)N1CCN(C/C=C/c2ccccc2)CC1 (stereo unspecified),EC50,[11],5.96 µM (active)
same,AC50,Cytochrome P450 2C19,14.1 µM (inconclusive)
COc1ccc(-n2nc(C(=O)NCC(=O)NCCCN3CC(C)CC(C)C3)c3ccccc3c2=O)cc1Cl (stereo unspecified),EC50,[11],1.5 µM (active)
CC(=O)OC1CC2OC3C=C(C)CCC3(C)C1(C)C21CO1 (stereo unspecified),IC50,[12],49.8 µM (inactive)
CCOc1ncccc1C(=O)N(CC)CC(=O)Nc1ccc(NC(C)=O)cc1,AC50,Escherichia coli,96.8 µM (active)
OC(CNC1CCCc2ccccc21)COc1ccc2ccccc2c1 (stereo unspecified),EC50,[11],5.96 µM (active)
CC1CC(C)CN(CCCNC(=O)COc2cc(=O)n(C)c3ccccc23)C1 (stereo unspecified),EC50,[11],0.749 µM (active)
COc1ccccc1-n1nc(C(=O)Nc2ccc3c(c2)OCO3)c2ccccc2c1=O,AC50,Escherichia coli,74.7 µM (active)
CC(=O)NCCn1c(SCc2ccccc2C)nc2ccccc2c1=O,AC50,[13],28.4 µM (active)
same,EC50,Protein RecA,83.2 µM (active)
same,EC50,[14],> 50 µM (active)
CCCCN(CC)CCCNC(=O)c1cc2c(-c3ccc(OC)c(OC)c3)nn(C)c2s1,AC50,[2],3.21 µM (active)
same,AC50,[3],9.31 µM (active)
O=C(NC1CCN(Cc2ccccc2)CC1)C12CC3CC(CC(C3)C1)C2,EC50,[11],1.5 µM (active)
CCn1cc(C(=O)NCCCN(C)C)c(=O)c2cc(F)c(N3CCN(C)CC3)cc21,EC50,[14],> 50 µM (active)
C[C@@H](C(=O)NC1CCCC1)N1C(=O)N2CCc3c([nH]c4ccccc34)[C@@]2(C)C1=O,EC50,[14],> 50 µM (active)
